Results: patent US20200190087A1 (priority 2016, published 2020)

Tests used:
[1] = molecular target: Human α2δ-1 subunit of Cav2.2 calcium channel (Homo sapiens, UniProt P54289); experiment: Human α2δ-1 subunit of Cav2.2 calcium channel assay ([3H]-Gabapentin binding); conditions: human α2δ-1 enriched membranes, 15 nM [3H]-Gabapentin, binding expressed as Ki; read-out: α2δ1 binding activity
Experimental: Human α2δ-1 Subunit of Cav2.2 Calcium Channel Assay
Human α2δ-1 enriched membranes (2.5 μg) were incubated with 15 nM of radiolabeled [3H]-Gabapentin in assay buffer containing Hepes-KOH 10 mM, pH 7.4. NSB (non specific binding) was measured by adding 10 μM pregabalin. The binding of the test compound was measured at five different concentrations. After 60 min incubation at 27° C., binding reaction was terminated by filtering through Multiscreen GF/C (Millipore) presoaked in 0.5% polyethyleneimine in Vacuum Manifold Station, followed by 3 washes with ice-cold filtration buffer containing 50 mM Tris-HCl, pH 7.4. Filter plates were dried at 60° C. for 1 hour and 30 μl of scintillation cocktail were added to each well before radioactivity reading. Readings were performed in a Trilux 1450 Microbeta radioactive counter (Perkin Elmer).

human μ-opioid receptor = molecular target: T1, human μ-opioid receptor (Homo sapiens, UniProt P35372); experiment: Human μ-opioid receptor radioligand assay ([3H]-DAMGO); assay type: binding; conditions: transfected CHO-K1 cell membranes, 1 nM [3H]-DAMGO, binding expressed as Ki; read-out: Mu binding activity
T1 construct: expressed in transfected cells; host or cells: CHO-K1
Experimental: Human μ-Opioid Receptor Radioligand Assay
To investigate binding properties of test compounds to human μ-opioid receptor, transfected CHO-K1 cell membranes and [^3H]-DAMGO (Perkin Elmer, ES-542-C), as the radioligand, were used. The assay was carried out with 20 μg of membrane suspension, 1 nM of [^3H]-DAMGO in either absence or presence of either buffer or 10 μM Naloxone for total and non-specific binding, respectively. Binding buffer contained Tris-HCl 50 mM, MgCl2 5 mM at pH 7.4. Plates were incubated at 27° C. for 60 minutes. After the incubation period, the reaction mix was then transferred to MultiScreen HTS, FC plates (Millipore), filtered and plates were washed 3 times with ice-cold 10 mM Tris-HCL (pH 7.4). Filters were dried and counted at approximately 40% efficiency in a MicroBeta scintillation counter (Perkin-Elmer) using EcoScint liquid scintillation cocktail. Preferably, transfected CHO-K1 cell membranes (20 μg) were incubated with 1 nM of [^3H]-DAMGO in assay buffer containing Tris-HCl 50 mM, MgCl2 5 mM at pH 7.4. NBS (non-specific binding) was measured by adding 10 μM Naloxone. The binding of the test compound was measured at five different concentrations. Plates were incubated at 27° C. for 60 minutes. After the incubation period, the reaction mix was then transferred to MultiScreen HTS, FC plates (Millipore), filtered and plates were washed 3 times with ice-cold 10 mM Tris-HCL (pH 7.4). Filters were dried and counted at approximately 40% efficiency in a MicroBeta scintillation counter (Perkin-Elmer) using EcoScint liquid scintillation cocktail.

Sequence of Human α2δ-1 subunit of Cav2.2 calcium channel (P54289 25-1103): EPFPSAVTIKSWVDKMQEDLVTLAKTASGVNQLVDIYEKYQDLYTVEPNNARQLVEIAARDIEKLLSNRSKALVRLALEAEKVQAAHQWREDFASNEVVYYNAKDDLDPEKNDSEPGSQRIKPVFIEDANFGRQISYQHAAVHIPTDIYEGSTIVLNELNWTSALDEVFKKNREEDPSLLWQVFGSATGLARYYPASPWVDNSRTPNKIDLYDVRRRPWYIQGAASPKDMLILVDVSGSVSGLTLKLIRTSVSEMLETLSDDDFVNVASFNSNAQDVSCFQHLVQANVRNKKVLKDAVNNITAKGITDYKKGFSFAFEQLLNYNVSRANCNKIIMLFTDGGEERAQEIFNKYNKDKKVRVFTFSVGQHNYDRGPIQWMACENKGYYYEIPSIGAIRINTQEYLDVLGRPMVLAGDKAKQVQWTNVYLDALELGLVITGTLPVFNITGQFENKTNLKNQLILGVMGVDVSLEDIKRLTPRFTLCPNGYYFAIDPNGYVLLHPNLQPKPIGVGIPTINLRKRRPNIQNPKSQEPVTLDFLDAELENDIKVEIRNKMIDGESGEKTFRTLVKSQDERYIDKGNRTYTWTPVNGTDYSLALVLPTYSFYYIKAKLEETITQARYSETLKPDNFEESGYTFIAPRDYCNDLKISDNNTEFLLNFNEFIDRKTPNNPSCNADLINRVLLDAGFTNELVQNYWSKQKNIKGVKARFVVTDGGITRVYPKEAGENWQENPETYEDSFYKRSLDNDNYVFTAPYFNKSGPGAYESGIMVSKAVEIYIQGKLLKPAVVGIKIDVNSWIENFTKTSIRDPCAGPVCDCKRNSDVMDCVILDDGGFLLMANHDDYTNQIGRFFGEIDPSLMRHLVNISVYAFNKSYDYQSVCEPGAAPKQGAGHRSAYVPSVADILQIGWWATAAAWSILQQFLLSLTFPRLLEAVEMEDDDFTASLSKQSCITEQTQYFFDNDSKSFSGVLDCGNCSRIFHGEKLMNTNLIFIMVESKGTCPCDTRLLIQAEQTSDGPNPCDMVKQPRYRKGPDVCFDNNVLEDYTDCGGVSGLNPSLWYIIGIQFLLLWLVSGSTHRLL
T1 sequence (P35372 whole entry): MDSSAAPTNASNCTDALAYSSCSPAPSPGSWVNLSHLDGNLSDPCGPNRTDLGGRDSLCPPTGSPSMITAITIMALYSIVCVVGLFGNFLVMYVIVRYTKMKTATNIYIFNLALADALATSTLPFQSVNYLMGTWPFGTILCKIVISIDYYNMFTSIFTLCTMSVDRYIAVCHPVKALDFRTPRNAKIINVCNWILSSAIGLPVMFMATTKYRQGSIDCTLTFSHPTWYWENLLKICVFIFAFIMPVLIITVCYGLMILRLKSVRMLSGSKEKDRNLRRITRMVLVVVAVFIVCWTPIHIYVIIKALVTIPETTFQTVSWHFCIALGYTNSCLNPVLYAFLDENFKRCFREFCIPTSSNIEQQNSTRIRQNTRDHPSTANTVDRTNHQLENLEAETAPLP

Row | Ki [1] | Ki (human μ-opioid receptor) | Compound
1 | 500 to 3000 nM | > 500 nM | CCOc1ccc(-n2nc3c(CC#N)nnc(C)c3c2C)c(F)c1 [Ex 62, 2-(2-(4-Ethoxy-2-fluorophenyl)-3,4-dimethyl-2H-pyrazolo[3,4-d]pyridazin-7-yl)acetonitrile]
2 | ≥ 5000 nM | > 500 nM | CCOc1ccc(-n2nc3c(C(C#N)(Cc4ccccc4)C(=O)OC(C)(C)C)nnc(C)c3c2C)c(F)c1 (stereo not shown) [Ex 64, tert-Butyl 2-cyano-2-(2-(4-ethoxy-2-fluorophenyl)-3,4-dimethyl-2H-pyrazolo[3,4-d]pyridazin-7-yl)-3-phenylpropanoate]
3 | 500 to 3000 nM | > 500 nM | CCOc1ccc(-n2nc3c(C4CCN(Cc5ccc(Cl)cn5)CC4)nnc(C)c3c2C)c(F)c1 [Ex 53, 7-(1-((5-Chloropyridin-2-yl)methyl)piperidin-4-yl)-2-(4-ethoxy-2-fluorophenyl)-3,4-dimethyl-2H-pyrazolo[3,4-d]pyridazine]
4 | 500 to 3000 nM | > 500 nM | CCOc1ccc(-n2nc3c(C4CCN(Cc5cccnc5)CC4)nnc(C)c3c2C)c(F)c1 [Ex 29, 2-(4-Ethoxy-2-fluorophenyl)-3,4-dimethyl-7-(1-(pyridin-3-ylmethyl)piperidin-4-yl)-2H-pyrazolo[3,4-d]pyridazine]
5 | 500 to 3000 nM | > 500 nM | CCOc1ccc(-n2nc3c(C4CCN(C)CC4)nnc(C)c3c2C)c(F)c1 [Ex 14, 2-(4-Ethoxy-2-fluorophenyl)-3,4-dimethyl-7-(1-methylpiperidin-4-yl)-2H-pyrazolo[3,4-d]pyridazine]
6 | 500 to 3000 nM | > 500 nM | CCOc1ccc(-n2nc3c(C4CCNCC4)nnc(C)c3c2C)c(F)c1 [Ex 18, 2-(4-Ethoxy-2-fluorophenyl)-3,4-dimethyl-7-(piperidin-4-yl)-2H-pyrazolo[3,4-d]pyridazine]
7 | 3000 to 5000 nM | > 500 nM | CCOc1ccc(-n2nc3c(-c4ccc5ncn(CCN)c5c4)nnc(C)c3c2C)c(F)c1 [Ex 24, 2-(6-(2-(4-Ethoxy-2-fluorophenyl)-3,4-dimethyl-2H-pyrazolo[3,4-d]pyridazin-7-yl)-1H-benzo[d]imidazol-1-yl)ethan-1-amine]
8 | 500 to 3000 nM | > 500 nM | CCOc1ccc(-n2nc3c(C4CCN(Cc5ncccc5C(F)(F)F)CC4)nnc(C)c3c2C)c(F)c1 [Ex 49, 2-(4-Ethoxy-2-fluorophenyl)-3,4-dimethyl-7-(1-((3-(trifluoromethyl)pyridin-2-yl)methyl)piperidin-4-yl)-2H-pyrazolo[3,4-d]pyridazine]
9 | 500 to 3000 nM | > 500 nM | CCOc1ccc(-n2nc3c(C4CCN(CCc5ccc(F)cc5)CC4)nnc(C)c3c2C)c(F)c1 [Ex 46, 2-(4-Ethoxy-2-fluorophenyl)-7-(1-(4-fluorophenethyl)piperidin-4-yl)-3,4-dimethyl-2H-pyrazolo[3,4-d]pyridazine]

More lines, now with the values behind:

Row | Compound | Ki [1] | Ki (human μ-opioid receptor)
10 | CCOc1ccc(-n2nc3c(C4CCN(Cc5ccc(F)cc5)CC4)nnc(C)c3c2C)c(F)c1 [Ex 27, 2-(4-Ethoxy-2-fluorophenyl)-7-(1-(4-fluorobenzyl)piperidin-4-yl)-3,4-dimethyl-2H-pyrazolo[3,4-d]pyridazine] | 500 to 3000 nM | > 500 nM
11 | CCOc1ccc(-n2nc3c(C(C#N)Cc4ccccc4)nnc(C)c3c2C)c(F)c1 (stereo not shown) [Ex 65, 2-(2-(4-Ethoxy-2-fluorophenyl)-3,4-dimethyl-2H-pyrazolo[3,4-d]pyridazin-7-yl)-3-phenylpropanenitrile] | 500 to 3000 nM | > 500 nM
12 | CCOc1ccc(-n2nc3c(CCCN(C)CCc4ccccc4)nnc(C)c3c2C)c(F)c1 [Ex 39, 3-(2-(4-Ethoxy-2-fluorophenyl)-3,4-dimethyl-2H-pyrazolo[3,4-d]pyridazin-7-yl)-N-methyl-N-phenethylpropan-1-amine] | 500 to 3000 nM | > 500 nM
13 | CCOc1ccc(-n2nc3c(-c4ccc5ncn(CCN(C)C)c5c4)nnc(C)c3c2C)c(F)c1 [Ex 10, 2-(6-(2-(4-Ethoxy-2-fluorophenyl)-3,4-dimethyl-2H-pyrazolo[3,4-d]pyridazin-7-yl)-1H-benzo[d]imidazol-1-yl)-N,N-dimethylethan-1-amine] | 3000 to 5000 nM | > 500 nM
14 | CCOc1ccc(-n2nc3c(C4CCN(Cc5ccc(F)cn5)CC4)nnc(C)c3c2C)c(F)c1 [Ex 55, 2-(4-Ethoxy-2-fluorophenyl)-7-(1-((5-fluoropyridin-2-yl)methyl)piperidin-4-yl)-3,4-dimethyl-2H-pyrazolo[3,4-d]pyridazine] | 500 to 3000 nM | > 500 nM
15 | CCOc1ccc(-n2nc3c(CCNCc4ccccc4)nnc(C)c3c2C)c(F)c1 [Ex 40, N-Benzyl-2-(2-(4-ethoxy-2-fluorophenyl)-3,4-dimethyl-2H-pyrazolo[3,4-d]pyridazin-7-yl)ethan-1-amine] | ≥ 5000 nM | > 500 nM
16 | CCOc1ccc(-n2nc3c(C4CN(C(=O)OC(C)(C)C)C4)nnc(C)c3c2C)c(F)c1 [Ex 12, tert-Butyl 3-(2-(4-ethoxy-2-fluorophenyl)-3,4-dimethyl-2H-pyrazolo[3,4-d]pyridazin-7-yl)azetidine-1-carboxylate] | ≥ 5000 nM | > 500 nM
17 | CCOc1ccc(-n2nc3c(-c4ccc(CN(C)C)cc4)nnc(C)c3c2C)c(F)c1 [Ex 6, 1-(4-(2-(4-Ethoxy-2-fluorophenyl)-3,4-dimethyl-2H-pyrazolo[3,4-d]pyridazin-7-yl)phenyl)-N,N-dimethylmethanamine] | 500 to 3000 nM | > 500 nM
18 | CCOc1ccc(-n2nc3c(C4CCN(Cc5cc(C(F)(F)F)ccn5)CC4)nnc(C)c3c2C)c(F)c1 [Ex 52, 2-(4-Ethoxy-2-fluorophenyl)-3,4-dimethyl-7-(1-((4-(trifluoromethyl)pyridin-2-yl)methyl)piperidin-4-yl)-2H-pyrazolo[3,4-d]pyridazine] | 3000 to 5000 nM | > 500 nM
19 | CCOc1ccc(-n2nc3c(C4=CCN(C)CC4)nnc(C)c3c2C)c(F)c1 [Ex 2, 2-(4-Ethoxy-2-fluorophenyl)-3,4-dimethyl-7-(1-methyl-1,2,3,6-tetrahydropyridin-4-yl)-2H-pyrazolo[3,4-d]pyridazine] | ≥ 5000 nM | > 500 nM
20 | CCOc1ccc(-n2nc3c(CCNCCc4ccccc4)nnc(C)c3c2C)c(F)c1 [Ex 41, 2-(2-(4-Ethoxy-2-fluorophenyl)-3,4-dimethyl-2H-pyrazolo[3,4-d]pyridazin-7-yl)-N-phenethylethan-1-amine] | ≥ 5000 nM | > 500 nM
21 | CCOc1ccc(-n2nc3c(-c4ccc(CCN(C)C)cc4)nnc(C)c3c2C)c(F)c1 [Ex 7, 2-(4-(2-(4-Ethoxy-2-fluorophenyl)-3,4-dimethyl-2H-pyrazolo[3,4-d]pyridazin-7-yl)phenyl)-N,N-dimethylethan-1-amine] | 500 to 3000 nM | > 500 nM
22 | CCOc1ccc(-n2nc3c(/C=C/CN(C)C(=O)OC(C)(C)C)nnc(C)c3c2C)c(F)c1 [Ex 5, tert-Butyl (E)-(3-(2-(4-ethoxy-2-fluorophenyl)-3,4-dimethyl-2H-pyrazolo[3,4-d]pyridazin-7-yl)allyl)(methyl)carbamate] | ≥ 5000 nM | > 500 nM
23 | CCOc1ccc(-n2nc3c(C4CCN(CCc5cccc(OC)c5)CC4)nnc(C)c3c2C)c(F)c1 [Ex 45, 2-(4-Ethoxy-2-fluorophenyl)-7-(1-(3-methoxyphenethyl)piperidin-4-yl)-3,4-dimethyl-2H-pyrazolo[3,4-d]pyridazine] | 500 to 3000 nM | > 500 nM
24 | CCOc1ccc(-n2nc3c(CN4CCC(c5cccc(O)c5)CC4)nnc(C)c3c2C)c(F)c1 [Ex 60, 3-(1-((2-(4-Ethoxy-2-fluorophenyl)-3,4-dimethyl-2H-pyrazolo[3,4-d]pyridazin-7-yl)methyl)piperidin-4-yl)phenol] | 500 to 3000 nM | > 500 nM
25 | CCOc1ccc(-n2nc3c(C4CCN(Cc5ccncc5)CC4)nnc(C)c3c2C)c(F)c1 [Ex 30, 2-(4-Ethoxy-2-fluorophenyl)-3,4-dimethyl-7-(1-(pyridin-4-ylmethyl)piperidin-4-yl)-2H-pyrazolo[3,4-d]pyridazine] | 500 to 3000 nM | > 500 nM
26 | CCOc1ccc(-n2nc3c(C4CCN(Cc5ncccc5Cl)CC4)nnc(C)c3c2C)c(F)c1 [Ex 51, 7-(1-((3-Chloropyridin-2-yl)methyl)piperidin-4-yl)-2-(4-ethoxy-2-fluorophenyl)-3,4-dimethyl-2H-pyrazolo[3,4-d]pyridazine] | 500 to 3000 nM | > 500 nM
